Test results: US12448388B2, “PRMT5 inhibitors and uses thereof” (Gilead Sciences, Inc., priority 2023, dated 2025)

system: HCT116 MTAP-deleted cell lines; assay: Cell viability assay (CellTiter-Glo, 7 days), HCT116 MTAP-deleted; format: cell-based; conditions: Homo sapiens, HCT-116; cell viability assay, HCT116 MTAP-deleted; class symbols; read-out: CC50
In short: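 PRMT5 inhibitors were serially diluted in DMSO and acoustically spotted as dose-response series into plates before cell seeding. Cells were grown with compound for 7 days at 37 °C, 5% CO2, 90% humidity, then viability was read by CellTiter-Glo luminescence and reported as CC50.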

| Structure (SMILES) | CC50 |
| --- | --- |
| Nc1nc2cc(F)c(C(=O)N3CC[C@H]4C[C@@H]3c3cc(F)c(C(F)(F)F)cc3O4)cc2n2cncc12 [Ff-636, (4-amino-7-fluoroimidazo[1,5-a]quinoxalin-8-yl)((2S,6R)-8-fluoro-9-(trifluoromethyl)-3,4-dihydro-2H-2,6-methanobenzo[b][1,5]oxazocin-5(6H)-yl)methanone] | < 100 nM |
| CN(C(=O)c1cc2c(cc1F)nc(N)c1cncn12)[C@@H]1COCc2cc(C#CC3(C)COC3)ccc21 [Ff-530, (S)-4-amino-7-fluoro-N-methyl-N-(7-((3-methyloxetan-3-yl)ethynyl)isochroman-4-yl)imidazo[1,5-a]quinoxaline-8-carboxamide] | < 100 nM |
| [2H]C([2H])([2H])[C@H]1CN(C(=O)c2cc3c(cc2F)nc(N)c2cncn23)[C@H]2c3ccc(C(F)(F)F)cc3C[C@H]2O1 (single isomer, unassigned) [Ff-639] | < 100 nM |
| Cc1cc2c(cc1Br)[C@H](N(C)C(=O)c1cc3c(cc1F)nc(N)c1cncn13)CO2 [Ff-460, (S)-4-amino-N-(5-bromo-6-methyl-2,3-dihydrobenzofuran-3-yl)-7-fluoro-N-methylimidazo[1,5-a]quinoxaline-8-carboxamide] | < 100 nM |
| Nc1nc2cc(F)c(C(=O)N(Cc3ccc(C(F)(F)F)cc3F)c3cnn4ccccc34)cc2n2cncc12 [Ff-424, 4-amino-7-fluoro-N-[[2-fluoro-4-(trifluoromethyl)phenyl]methyl]-N-pyrazolo[1,5-a]pyridin-3-yl-imidazo[1,5-a]quinoxaline-8-carboxamide] | < 100 nM |
| CN(C(=O)c1cc2c(cc1F)nc(N)c1cncn12)[C@@H]1COc2cc(C#CC(C)(C)C#N)ccc21 [Ff-439, 4-amino-N-[(3S)-6-(3-cyano-3-methyl-but-1-ynyl)-2,3-dihydrobenzofuran-3-yl]-7-fluoro-N-methyl-imidazo[1,5-a]quinoxaline-8-carboxamide] | < 100 nM |
| CN(C(=O)c1cc2c(cn1)nc(N)c1cncn12)[C@@H]1COc2cc(OC(F)(F)F)ccc21 [Ff-565, (S)-4-amino-N-methyl-N-(6-(trifluoromethoxy)-2,3-dihydrobenzofuran-3-yl)imidazo[1,5-a]pyrido[3,4-e]pyrazine-8-carboxamide] | 100 to 1000 nM |
| C[C@H]1C[C@@H](N(C)C(=O)c2cc3c(cc2F)nc(N)c2cncn23)c2ccc(C(F)(F)F)cc21 [Ff-654, 4-amino-7-fluoro-N-methyl-N-((1R,3S)-3-methyl-5-(trifluoromethyl)-2,3-dihydro-1H-inden-1-yl)imidazo[1,5-a]quinoxaline-8-carboxamide] | < 100 nM |
| Nc1nc2cc(F)c(C(=O)N3CCC4(CCc5ccccc54)C3)cc2n2cncc12 (stereo not shown) [Ff-670, (4-amino-7-fluoroimidazo[1,5-a]quinoxalin-8-yl)(2,3-dihydrospiro[indene-1,3′-pyrrolidin]-1′-yl)methanone] | 100 to 1000 nM |

same assay, conditions: Homo sapiens, HCT-116; cell viability, HCT116 MTAP-deleted; class symbols; read-out: CC50

| Structure (SMILES) | CC50 |
| --- | --- |
| C[C@H]1CN(C(=O)c2cc3c(cc2F)nc(N)c2cncn23)[C@H]2c3ccc(OC(F)(F)F)cc3C[C@H]2O1 (single isomer, unassigned) [Ff-184] | < 100 nM |
| Nc1nc2cc(F)c(C(=O)N(Cc3ccc(-n4ccnc4)cc3Cl)C34CC(C3)C4)cc2n2cncc12 [Ff-53, 4-amino-N-(bicyclo[1.1.1]pentan-1-yl)-N-(2-chloro-4-(1H-imidazol-1-yl)benzyl)-7-fluoroimidazo[1,5-a]quinoxaline-8-carboxamide] | < 100 nM |
| CN(C(=O)c1cc2c(cc1F)nc(N)c1cncn12)[C@@H](c1ccc(OC(F)(F)F)cc1F)C(F)F [Fb-11, (S)-4-amino-N-(2,2-difluoro-1-(2-fluoro-4-(trifluoromethoxy)phenyl)ethyl)-7-fluoro-N-methylimidazo[1,5-a]quinoxaline-8-carboxamide] | < 100 nM |
| Cn1cc(-c2ccc(CN(C(=O)c3cc4c(cc3F)nc(N)c3cncn34)C34CC(C3)C4)c(F)c2)cn1 [Ff-204, 4-amino-N-(bicyclo[1.1.1]pentan-1-yl)-7-fluoro-N-(2-fluoro-4-(1-methyl-1H-pyrazol-4-yl)benzyl)imidazo[1,5-a]quinoxaline-8-carboxamide] | < 100 nM |
